According to BindingDB's records for doi:10.1021/acs.jmedchem.5b01008 (Pfizer, 2015):
Where “and” joins values, the source holds several entries; their conditions need not be identical. Identical values can stand only once.

Legend:
[1] = molecular target: 2-acylglycerol O-acyltransferase 1 (MGAT1, MOGAT1) (Homo sapiens) (UniProt Q96PD6); test: Inhibition of MGAT1 (unknown origin) assessed as effect on incorporation of [1-14C]decanoyl moiety into DAG using [1-14C]decanoyl-CoA and 2-oleoylglycerol as substrates
[2] = molecular target: 2-acylglycerol O-acyltransferase 3 (MGAT3, MOGAT3) (Homo sapiens) (UniProt Q86VF5); test: Inhibition of MGAT3 (unknown origin) assessed effect on incorporation of [1-14C]decanoyl moiety into triacylglycerol using [1-14C]decanoyl-CoA and 1,2-didecanoyl-sn-glycerol as substrates pre-incubated for 30 mins before substrate addition
[3] = molecular target: 2-acylglycerol O-acyltransferase 3 (MGAT3, MOGAT3) (Homo sapiens) (UniProt Q86VF5); test: Inhibition of human MGAT3 expressed in HEK293 cells assessed as effect on incorporation of [1,3-14C] glycerol into TAG by TLC method in presence of DGAT1 inhibitor PF-04620110 and DGAT2 inhibitor PF-06424439

Sequence of 2-acylglycerol O-acyltransferase 1 (MGAT1, MOGAT1) (Homo sapiens) (Q96PD6 whole entry, looked up): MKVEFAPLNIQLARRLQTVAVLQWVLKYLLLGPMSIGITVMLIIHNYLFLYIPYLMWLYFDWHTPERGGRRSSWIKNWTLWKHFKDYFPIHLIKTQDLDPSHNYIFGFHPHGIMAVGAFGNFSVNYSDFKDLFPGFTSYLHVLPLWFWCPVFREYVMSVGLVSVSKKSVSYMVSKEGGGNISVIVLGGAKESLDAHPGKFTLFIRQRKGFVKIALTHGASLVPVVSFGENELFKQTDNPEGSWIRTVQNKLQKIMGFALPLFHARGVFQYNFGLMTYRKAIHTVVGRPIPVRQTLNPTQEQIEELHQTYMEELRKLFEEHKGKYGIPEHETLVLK
Sequence of 2-acylglycerol O-acyltransferase 3 (MGAT3, MOGAT3) (Homo sapiens) (Q86VF5 whole entry, looked up): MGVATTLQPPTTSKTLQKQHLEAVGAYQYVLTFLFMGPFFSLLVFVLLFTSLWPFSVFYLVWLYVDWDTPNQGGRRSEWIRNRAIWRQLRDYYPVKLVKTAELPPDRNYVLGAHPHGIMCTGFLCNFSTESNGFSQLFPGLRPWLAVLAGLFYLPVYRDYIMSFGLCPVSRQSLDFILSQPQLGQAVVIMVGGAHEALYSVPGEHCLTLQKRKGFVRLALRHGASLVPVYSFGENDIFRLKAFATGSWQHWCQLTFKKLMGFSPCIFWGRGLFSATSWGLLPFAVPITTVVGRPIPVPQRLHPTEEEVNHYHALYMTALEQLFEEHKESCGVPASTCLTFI

| IC50 [1] | IC50 [2] | IC50 [3] | SMILES |
| --- | --- | --- | --- |
| 14900 nM and 14800 nM | 92 nM and 100 nM | 205 nM and 204 nM | COc1cccc(CC(=O)N2Cc3ccc(S(=O)(=O)Nc4cnn(C5CCC5)n4)cc3C2)c1 |
|  | 365 nM and 398 nM |  | COc1cccc(CC(=O)N2Cc3ccc(S(=O)(=O)Nc4cnn(C5COC5)n4)cc3C2)c1 |
|  |  | 394 nM and 389 nM | COc1cccc(CC(=O)N2Cc3ccc(S(=O)(=O)Nc4cnn(C5CC(F)(F)C5)n4)cc3C2)c1 |

More lines, now with the values behind:

| SMILES | IC50 [1] | IC50 [2] | IC50 [3] |
| --- | --- | --- | --- |
| COc1cccc(CC(=O)N2Cc3ccc(S(=O)(=O)NCCc4cccc(F)c4)cc3C2)c1 | > 40000 nM | 682 nM and 631 nM |  |
| COc1cccc(CC(=O)N2Cc3ccc(S(=O)(=O)N(C)CCc4cccc(F)c4)cc3C2)c1 |  | 2740 nM and 2510 nM |  |
| COc1cccc(CC(=O)N2Cc3ccc(S(=O)(=O)Nc4cnn(C)n4)cc3C2)c1 |  | 3840 nM and 3980 nM |  |
| COc1cccc(CC(=O)N2Cc3ccc(S(=O)(=O)Nc4cnn(-c5ccccc5)n4)cc3C2)c1 |  | 6 nM |  |
| COc1cccc(CC(=O)N2Cc3ccc(S(=O)(=O)Nc4cnn(-c5ccc(F)cc5)n4)cc3C2)c1 |  | 6 nM |  |
| COc1cccc(CC(=O)N2Cc3ccc(S(=O)(=O)Nc4cnn(C(C)C)n4)cc3C2)c1 |  | 597 nM and 631 nM |  |
